In patent US6759207B2, “Fluorogenic or fluorescent reporter molecules and their applications for whole-cell fluorescence screening assays for caspases and other enzymes and the use thereof” (Cytovia, Inc., priority 1997, dated 2004):

Key:
[1] = target: T1, recombinant human caspase-3 (Homo sapiens, UniProt P42574); experiment: Cleavage of caspase-3 substrates by recombinant human caspase-3; format: biochemical; settings: for Cleavage by Caspase-3: 10 μM or 50 μM substrate, 37° C.
T1 sequence (P42574 29-175 limits assumed): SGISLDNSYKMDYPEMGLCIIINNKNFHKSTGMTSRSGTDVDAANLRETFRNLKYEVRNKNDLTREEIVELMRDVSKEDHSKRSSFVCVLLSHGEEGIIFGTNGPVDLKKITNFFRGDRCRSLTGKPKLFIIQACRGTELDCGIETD
T1 sequence (P42574 176-277 limits assumed): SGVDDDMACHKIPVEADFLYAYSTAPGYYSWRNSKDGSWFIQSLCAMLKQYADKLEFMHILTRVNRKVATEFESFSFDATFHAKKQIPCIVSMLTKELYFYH
Description: (§1) The caspase substrates were assayed by recombinant caspase-3 and by lysates prepared from apoptotic HL-60 cells. The assays were carried out at 37° C. in 96-well plates in a 100 μL incubation containing 30 μL of caspase-3 preparation or cell lysate, 10 μM or 50 μM of the substrate, and caspase assay buffer (40 mM 1,4-piperazinebis(ethansulfonic acid) (PIPES, Aldrich Chemical Company) pH 7.2; 100 mM NaCl; 10% sucrose; 0.1% CHAPS; 1 mM EDTA; 10 mM DTT). At the end of the incubation period, the fluorescence was measured on a Bio-Tek FL500 fluorescence microplate reader using excitation and emission wavelengths of 485 and 530 nm, respectively. Two different controls were run: 1) an enzyme blank consisting of samples containing substrate, but without enzyme or cell lysate; 2) an inhibitor control, consisting of samples which contained the caspase inhibitor, Ac-DEVD-CHO (f.c., 10 μM).

[2] = tested on: apoptotic HL-60 cell lysates; experiment: Cleavage of caspase-3 substrates by apoptotic HL-60 cell lysates; format: biochemical; settings: 10 μM or 50 μM substrate, 37° C., vinblastine treated HL-60 cell lysates
Description: as §1

[3] = tested on: HL-60 cells; experiment: Staining of apoptotic HL-60 cells by caspase-3 substrate (whole-cell assay, microscopy); format: cell-based
Description: (§2) The ability of N-Ac-DEVD-N′-octyloxycarbonyl-R110 SEQ ID NO:5 to detect caspase activation in intact cells was tested using apoptotic HL-60 and Jurkat cells. These whole-cell assays were carried out in two stages: 1) induction of apoptosis; 2) incubation with the substrate. For HL-60 cells, apoptosis was induced by treatment with 10 μg/ml vinblastine for 4 hours. Control samples were treated with DMSO. For Jurkat cells, apoptosis was induced by treatment with 500 ng/ml agonistic antiFas antibody for 2 hours. Control samples were treated with PBS. Following apoptosis induction, the cells were incubated with 50 μM N-Ac-DEVD-N′-octyloxycarbonyl-R110 SEQ ID NO:5 in caspase assay buffer (40 mM PIPES, pH 7.4; 100 mM NaCl; 10% sucrose; 1 mM EDTA; 10 mM DTT). The cells were than transferred to a glass microslide and viewed by epifluorescent illumination on a Nikon inverted microscope.

[4] = tested on: Jurkat cells; experiment: Staining of apoptotic Jurkat cells by caspase-3 substrate (whole-cell assay, microscopy); format: cell-based; settings: 50 μM substrate
Description: as §2

[5] = tested on: Jurkat cells; experiment: Cleavage of caspase-3 substrate by whole apoptotic Jurkat cells (plate reader); format: cell-based
Description: In order to quantitate the cleavage of N-Ac-[…]-N-octyloxycarbonyl-R110 SEQ ID NO:5 by whole cells, an assay was performed in which the fluorescent signal generated from this substrate by apoptotic Jurkat cells was measured in a spectrofluorometric plate reader. Jurkat cells were incubated for varying times in 96-well plates with 500 ng/ml antiFas antibody to induce apoptosis. Control cells were incubated with PBS. At the end of the treatment period, the cells were harvested, centrifuged in 1.5 ml tubes and resuspended in 25 μL of medium containing 1% FBS. 25 μL of caspase buffer containing 50 μM N-Ac-DEVD-N′-octyloxycarbonyl R110 SEQ ID NO:5 was added, and the cells were incubated for one hour. At the end of the incubation period, three 5 μL aliquots from each time point were placed in 96-well plates and the fluorescence was measured at excitation/emission wavelength of 485/530 nm. […] However, cells treated with antiFas gave a detectable fluorescent signal at about one hour after apoptosis induction, and the signal continued to increase up to the 2 hour timepoint, with a signal to background ratio of about 7.

[6] = target: T2, recombinant CPP32 (Homo sapiens, UniProt P42574); experiment: Fluorometric enzyme assay, cleavage of substrate by recombinant CPP32; format: biochemical; settings: for efficiency as substrate for CPP32: summary of Table 4
T2 construct: made in house; host or cells: Sf9 insect cells, baculovirus vector
T2 sequence (P42574 29-175 limits assumed): T1 sequence (P42574 29-175 limits assumed)
T2 sequence (P42574 176-277 limits assumed): T1 sequence (P42574 176-277 limits assumed)
Description: (§3) The activities of N-(Z-VD)-N′-acetyl-Rhodamine 110, N-(Z-VAD)-N′-acetyl-Rhodamine 110, N-(Z-DEVD)-N′-acetyl-Rhodamine 110 SEQ ID NO:5, N-(Z-YVAD)-N-acetyl-Rhodamine 110 SEQ ID NO:2, (Z-VAD)2-Rhodamine 110 and (Z-YVAD)2-Rhodamine 110 SEQ ID NO:2 as synthetic substrates for recombinant CPP32 and ICE were measured in a fluorometric enzyme assay. […] See, Webb, N. R. et al., “Expression of proteins using recombinant Baculovirus,” Techniques 2:173-188 (1990). Cleavage of the synthetic substrates by the enzyme results in a fluorescent signal which is read in a spectrofluorometer or in a fluorometric microtiter plate reader. Using this assay, the Km and Vmax values were determined for each substrate with either CPP32 or ICE.
(§4) CPP32 and ICE dependent substrate cleavage was measured using the following buffer conditions: 100 mM HEPES pH 7.5, with 10% sucrose, 1% CHAPS, 5 mM glutathione, and 1-100 μM test substrate. Nonspecific enzyme cleavage was determined with the use of the specific CPP32 and ICE inhibitors consisted of an oligomer with the sequence Asp-Glu-Val-Asp or Tyr-Val-Ala-Asp, respectively, with an aldehyde group conjugated to the C-terminus. The assay for enzyme activity was typically carried out at 37° C. for 60 minutes.

[7] = target: T3, recombinant ICE (Homo sapiens, UniProt P29466); experiment: Fluorometric enzyme assay, cleavage of substrate by recombinant ICE; format: biochemical; settings: for ICE Vmax / Km: 1-100 μM substrate, 37° C.; for Km: NA = no activity observed at 1-100 μM substrate, 3 h incubation; for efficiency as substrate for ICE: summary of Table 4
T3 construct: made in house; host or cells: Sf9 insect cells, baculovirus vector
T3 sequence (P29466 120-297 limits assumed): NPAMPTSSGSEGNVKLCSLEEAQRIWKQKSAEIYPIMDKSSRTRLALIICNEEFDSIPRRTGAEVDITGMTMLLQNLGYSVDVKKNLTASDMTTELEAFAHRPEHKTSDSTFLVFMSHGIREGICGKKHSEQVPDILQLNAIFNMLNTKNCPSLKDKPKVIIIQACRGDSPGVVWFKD
T3 sequence (P29466 317-404 limits assumed): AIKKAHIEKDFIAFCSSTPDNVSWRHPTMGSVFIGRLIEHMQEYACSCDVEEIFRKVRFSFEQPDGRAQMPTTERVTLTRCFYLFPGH
Description: as §3, §4

[8] = Fluorescence and stability of N-acetyl-Rhodamine 110 compared to Rhodamine 110 (fluorometric assay); format: physicochemical
Description: The activities of Rhodamine 110 and N-acetyl-Rhodamine 110 as fluorescent moieties for synthetic substrates were measured in a fluorometric assay. The fluorescent signal is read in a spectrofluorometer or in a fluorometric microtiter plate reader at excitation wavelength of 485 and emission 530. Using this assay, the relative fluorescent values were determined for the two fluorescent moieties.
Fluorescence was measured using the following buffer conditions: 100 mM HEPES pH 7.5, with 10% sucrose, 1% CHAPS, 5 mM glutathione, and 1-200 nM test compound. The assay for stability was typically carried out at 37° C. for 2 days.

[9] = listed as N-Z-EVD-N′-Ethoxycarbonyl-R110

Compound: CCOC(=O)Nc1ccc2c(c1)Oc1cc(NC(=O)[C@H](CC(=O)O)NC(=O)[C@@H](NC(=O)[C@H](CCC(=O)O)NC(=O)[C@H](CC(=O)O)NC(=O)OCc3ccccc3)C(C)C)ccc1C21OC(=O)c2ccccc21 (stereo partly drawn) [N-Z-DEVD-N′-ethoxycarbonyl-R110, N-(Cbz-Asp-Glu-Val-Asp)-N′-ethoxycarbonyl-Rhodamine 110]
- Cleavage by Caspase-3 [1]: Good
- Cleavage by Apoptotic Lysates [2]: Good

Compound: CCOC(=O)Nc1ccc2c(c1)Oc1cc(NC(=O)C(CC(=O)O)NC(=O)C(NC(=O)C(CCC(=O)O)NC(=O)OCc3ccccc3)C(C)C)ccc1C21OC(=O)c2ccccc21 (stereo not drawn) [N-Z-EVD-N′-ethoxycarbonyl-R110]
- Cleavage by Caspase-3 [1]: Fair
- Cleavage by Caspase-3 [1, 9]: cleaved efficiently
- Cleavage by Apoptotic Lysates [2]: Fair
- Cleavage by Apoptotic Lysates [2, 9]: cleaved efficiently

Compound: CCOC(=O)Nc1ccc2c(c1)Oc1cc(NC(=O)[C@H](CC(=O)O)NC(=O)[C@@H](NC(=O)OCc3ccccc3)C(C)C)ccc1C21OC(=O)c2ccccc21 (stereo partly drawn) [N-Z-VD-N′-ethoxycarbonyl-R110, N-(Cbz-Val-Asp)-N′-Ethoxycarbonyl-Rhodamine 110]
- Cleavage by Caspase-3 [1]: the signal was low and Poor
- amount of recombinant caspase-3 required for cleavage relative to tri- and tetrapeptide substrates ([1]; FIG. 2A): 50 fold
- Cleavage by Apoptotic Lysates [2]: Poor

Compound: CCSC(=O)Nc1ccc2c(c1)Oc1cc(NC(=O)[C@H](CC(=O)O)NC(=O)[C@@H](NC(=O)[C@H](CCC(=O)O)NC(=O)[C@H](CC(=O)O)NC(C)=O)C(C)C)ccc1C21OC(=O)c2ccccc21 (stereo partly drawn) [N-Ac-DEVD-N′-(ethylthio)carbonyl-R110, N-(Ac-Asp-Glu-Val-Asp)-N′-(ethylthio)carbonyl-Rhodamine 110]
- Cleavage by Caspase-3 [1]: Good
- Cleavage by Apoptotic Lysates [2]: Good

Compound: CCCCCCCCOC(=O)Nc1ccc2c(c1)Oc1cc(NC(=O)[C@H](CC(=O)O)NC(=O)[C@@H](NC(=O)[C@H](CCC(=O)O)NC(=O)[C@H](CC(=O)O)NC(C)=O)C(C)C)ccc1C21OC(=O)c2ccccc21 (stereo partly drawn) [N-Ac-DEVD-N′-octyloxycarbonyl-R110, N-(Ac-Asp-Glu-Val-Asp)-N′-octyloxycarbonyl-Rhodamine 110]
- Cleavage by Caspase-3 [1]: Good
- Cleavage by Apoptotic Lysates [2]: Good
- staining of vinblastine-treated HL-60 cells ([3]; 50 μM substrate, apoptosis induced by 10 μg/ml vinblastine for 4 hours): intensely stained
- staining of DMSO-treated HL-60 cells ([3]; 50 μM substrate, control cells): some staining
- staining of antiFas-treated Jurkat cells ([4]; 500 ng/ml agonistic antiFas antibody for 2 hours): intense staining
- staining of control Jurkat cells ([4]; PBS-treated): only light staining
- signal to background ratio ([5]; antiFas-treated Jurkat cells, 2 hour timepoint, 485/530 nm): about 7
- fluorescent signal of PBS-treated cells ([5]; control Jurkat cells): small fluorescent signal which did not increase

Compound: CCOC(=O)Nc1ccc2c(c1)Oc1cc(NC(=O)[C@H](CC(=O)O)NC(=O)[C@@H](NC(=O)[C@H](CCC(=O)O)NC(=O)[C@H](CC(=O)O)NC(C)=O)C(C)C)ccc1C21OC(=O)c2ccccc21 (stereo partly drawn) [N-Ac-DEVD-N′-ethoxycarbonyl-R110, N-(Ac-Asp-Glu-Val-Asp)-N′-ethoxycarbonyl-Rhodamine 110]
- Cleavage by Caspase-3 [1]: Good
- Cleavage by Apoptotic Lysates [2]: Good

Compound: CC(=O)N[C@@H](CC(=O)O)C(=O)N[C@@H](CCC(=O)O)C(=O)N[C@H](C(=O)N[C@H](C=O)CC(=O)O)C(C)C [Ac-DEVD-CHO, reference compound]
- fluorescent signal of vinblastine-treated HL-60 cells with inhibitor added during the assay stage ([3]; 50 μM Ac-DEVD-CHO, substrate 50 μM N-Ac-DEVD-N′-octyloxycarbonyl-R110): almost no fluorescent signal

Compound: CC(=O)Nc1ccc2c(c1)Oc1cc(NC(=O)C(CC(=O)O)NC(=O)C(C)NC(=O)C(NC(=O)OCc3ccccc3)C(C)C)ccc1C21OC(=O)c2ccccc21 (stereo not drawn) [N-(Z-VAD)-N′-Ac-Rhodamine 110, N-(Z-Val-Ala-Asp)-N′-acetyl-Rhodamine 110]
- efficiency as substrate for CPP32 [6]: not for CPP32
- ICE Vmax [7]: 4 nmol/min
- Km [7]: 70 µM
- efficiency as substrate for ICE [7]: efficient substrates

Compound: CC(=O)Nc1ccc2c(c1)Oc1cc(N)ccc1C21OC(=O)c2ccccc21 (stereo not drawn) [N-acetyl Rhodamine 110, N-Acetyl-Rhodamine 110]
- stability and efficiency as fluorescent indicator ([8]; 37° C. for 2 days): stable and efficient fluorescent indicator
- ratio of fluorescent signal (Rhodamine 110/N-acetyl Rhodamine 110) ([8]; after two days incubation at 37° C.): 10.1
- ratio of fluorescent signal (Rhodamine 110/N-acetyl Rhodamine 110) ([8]; time zero, excitation 485, emission 530, HEPES pH 7.5 buffer): 10.2

Compound: CCCCCCOC(=O)Nc1ccc2c(c1)Oc1cc(NC(=O)[C@H](CC(=O)O)NC(=O)[C@@H](NC(=O)[C@H](CCC(=O)O)NC(=O)[C@H](CC(=O)O)NC(C)=O)C(C)C)ccc1C21OC(=O)c2ccccc21 (stereo partly drawn) [N-Ac-DEVD-N′-hexyloxycarbonyl-R110, N-(Ac-Asp-Glu-Val-Asp)-N′-hexyloxycarbonyl-Rhodamine-110]
- Cleavage by Caspase-3 [1]: Good
- Cleavage by Apoptotic Lysates [2]: Good

Compound: CC(=O)Nc1ccc2c(c1)Oc1cc(NC(=O)[C@H](CC(=O)O)NC(=O)[C@@H](NC(=O)[C@H](CCC(=O)O)NC(=O)[C@H](CC(=O)O)NC(=O)OCc3ccccc3)C(C)C)ccc1C21OC(=O)c2ccccc21 (stereo partly drawn) [N-(Z-DEVD)-N′-Ac-Rhodamine 110, N-(Z-Asp-Glu-Val-Asp)-N′-acetyl-Rhodamine 110]
- CPP32 Vmax ([6]; 1-100 μM substrate, 37° C.): 160 nmol/min
- efficiency as substrate for CPP32 [6]: efficient substrate
- ICE Vmax [7]: 9 nmol/min
- Km [7]: 12 µM
- efficiency as substrate for ICE [7]: efficient substrate
